Assay results published in patent publication EP3959993B1, “METHOD FOR SOLVENT FREE PRODUCTION OF AROMA CONCENTRATES” (Symrise AG, priority 2020, dated 2022).

Legend:
[1] = theoretical solubility, values known in the literature; cited from earlier work
[2] = Influence of the amount of NaCl on the distribution between oil phase and water phase (Example 5); type: physicochemical
[3] = Second oil phase obtained by adding NaCl to the water phase (Example 4); type: physicochemical; settings: after separating oil phases I and II
Description: Cross linked polystyrene was used as adsorbent material. The volume flux for loading the adsorbent was 300 ml/min.
The adsorbent was heated to 150 °C, the temperature of the applied water steam was 160 °C.
The water steam flux was 10 g/min and was applied for 100 min.
The oil and water phases were separated.
A second oil phase was separated and was collected.

Distribution in [%] between oil phase and water phase after condensation: Oil phase ([2]; NaCl 0%) | Distribution in [%] between oil phase and water phase after condensation: Water phase ([2]; NaCl 0%) | Distribution in [%] between oil phase and water phase after condensation: Oil phase ([2]; NaCl 27.8 %) | Distribution in [%] between oil phase and water phase after condensation: Water phase ([2]; NaCl 27.8 %) | Distribution in [%] between oil phase and water phase after condensation: Oil phase ([2]; NaCl 41.67%) | Distribution in [%] between oil phase and water phase after condensation: Water phase ([2]; NaCl 41.67%) | Distribution in [%] between oil phase and water phase after condensation: Oil phase ([2]; NaCl 55.56 %) | Distribution in [%] between oil phase and water phase after condensation: Water phase ([2]; NaCl 55.56 %) | Distribution in [%] between oil phase and water phase after condensation: Oil phase ([2]; NaCl 69.44 %) | Distribution in [%] between oil phase and water phase after condensation: Water phase ([2]; NaCl 69.44 %) | Distribution in [%] between oil phase and water phase after condensation: Oil phase ([2]; NaCl 83.33 %) | Distribution in [%] between oil phase and water phase after condensation: Water phase ([2]; NaCl 83.33 %) | Loss in the water phase [3] | Compound | Solubility in water (%) [1]
– | – | – | – | – | – | – | – | – | – | – | – | – | [Cl-].[K+] [Potassium chloride] | 34.7%
29.5% | 70.5% | 56.8% | 43.2% | 67.2% | 32.8% | 73.8% | 26.2% | 79.8% | 20.2% | 84.6% | 15.4% | 15,4% | CCCCCO [pentanol] | –
17.1% | 82.9% | 29.7% | 70.3% | 41% | 59% | 42.8% | 57.2% | 45.9% | 54.1% | 50.2% | 49.8% | 49,8% | 2-methyl propanol | –
37.9% | 62.1% | 73.6% | 26.4% | 82.6% | 17.4% | 88.4% | 11.6% | 91.7% | 8.3% | 94% | 6% | 6,0% | CCC/C=C/CO [trans-2-hexenol] | –
– | – | – | – | – | – | – | – | – | – | – | – | – | O=P([O-])([O-])OP(=O)([O-])OP(=O)([O-])[O-].[Na+].[Na+].[Na+].[Na+].[Na+] [Triphosphate (Na)] | 14.5%

Compound | Distribution in [%] between oil phase and water phase after condensation: Oil phase ([2]; NaCl 0%) | Distribution in [%] between oil phase and water phase after condensation: Water phase ([2]; NaCl 0%) | Distribution in [%] between oil phase and water phase after condensation: Oil phase ([2]; NaCl 27.8 %) | Distribution in [%] between oil phase and water phase after condensation: Water phase ([2]; NaCl 27.8 %) | Distribution in [%] between oil phase and water phase after condensation: Oil phase ([2]; NaCl 41.67%) | Distribution in [%] between oil phase and water phase after condensation: Water phase ([2]; NaCl 41.67%) | Distribution in [%] between oil phase and water phase after condensation: Oil phase ([2]; NaCl 55.56 %) | Distribution in [%] between oil phase and water phase after condensation: Water phase ([2]; NaCl 55.56 %) | Distribution in [%] between oil phase and water phase after condensation: Oil phase ([2]; NaCl 69.44 %) | Distribution in [%] between oil phase and water phase after condensation: Water phase ([2]; NaCl 69.44 %) | Distribution in [%] between oil phase and water phase after condensation: Oil phase ([2]; NaCl 83.33 %) | Distribution in [%] between oil phase and water phase after condensation: Water phase ([2]; NaCl 83.33 %) | Loss in the water phase [3] | Solubility in water (%) [1]
CCOC(=O)C(C)CC (stereo not shown) [ethyl 2-methyl butyrate] | 66.1% | 33.9% | 95% | 5% | 97.9% | 2.1% | 98.8% | 1.2% | 99.7% | 0.3% | 100% | 0% | 0,0% | –
CCCCCC(=O)O [caproic acid] | 43.5% | 56.5% | 84.9% | 15.1% | 91.5% | 8.5% | 94.9% | 5.1% | 97% | 3% | 97.9% | 2.1% | 2,1% | –
